Results: ChEMBL document CHEMBL5143537, “Quinazoline-based hydroxamic acid derivatives as dual histone methylation and deacetylation inhibitors for potential anticancer agents” (Bioorg Med Chem, 2022)
Activity calls are given as the source filed them. The calls are words filed in the database; no cut-off is given here.

Legend:
HepG2 [1] = assay: Induction of apoptosis in human HepG2 cells assessed as early apoptotic cells at 2.5 uM measured after 48 hrs by Annexin V-FITC/propidium iodide staining based flow cytometry (reference value: 6.87%); assay type: functional
HepG2 [2] = assay: Induction of apoptosis in human HepG2 cells assessed as increase in cleaved PARP expression at 1.25 to 20 uM measured after 48 hrs by Western blot analysis; assay type: functional, cell-based; conditions: dose 1.25-20 µM
[3] = Metabolic stability in rat liver microsomes assessed as parent compound remaining at 1 uM measured after 5 mins by LC-MS/MS analysis; assay type: ADME, Microsome; conditions: read-out: Stability
[4] = target: T1, Protein deacetylase HDAC6 (Homo sapiens, UniProt Q9UBN7); assay: Inhibition of recombinant HDAC6 (unknown origin) using Ac-peptide-AMC as substrate preincubated for 15 mins followed by substrate addition and measured after 60 mins by fluorescence assay
T1 sequence (Q9UBN7 whole entry): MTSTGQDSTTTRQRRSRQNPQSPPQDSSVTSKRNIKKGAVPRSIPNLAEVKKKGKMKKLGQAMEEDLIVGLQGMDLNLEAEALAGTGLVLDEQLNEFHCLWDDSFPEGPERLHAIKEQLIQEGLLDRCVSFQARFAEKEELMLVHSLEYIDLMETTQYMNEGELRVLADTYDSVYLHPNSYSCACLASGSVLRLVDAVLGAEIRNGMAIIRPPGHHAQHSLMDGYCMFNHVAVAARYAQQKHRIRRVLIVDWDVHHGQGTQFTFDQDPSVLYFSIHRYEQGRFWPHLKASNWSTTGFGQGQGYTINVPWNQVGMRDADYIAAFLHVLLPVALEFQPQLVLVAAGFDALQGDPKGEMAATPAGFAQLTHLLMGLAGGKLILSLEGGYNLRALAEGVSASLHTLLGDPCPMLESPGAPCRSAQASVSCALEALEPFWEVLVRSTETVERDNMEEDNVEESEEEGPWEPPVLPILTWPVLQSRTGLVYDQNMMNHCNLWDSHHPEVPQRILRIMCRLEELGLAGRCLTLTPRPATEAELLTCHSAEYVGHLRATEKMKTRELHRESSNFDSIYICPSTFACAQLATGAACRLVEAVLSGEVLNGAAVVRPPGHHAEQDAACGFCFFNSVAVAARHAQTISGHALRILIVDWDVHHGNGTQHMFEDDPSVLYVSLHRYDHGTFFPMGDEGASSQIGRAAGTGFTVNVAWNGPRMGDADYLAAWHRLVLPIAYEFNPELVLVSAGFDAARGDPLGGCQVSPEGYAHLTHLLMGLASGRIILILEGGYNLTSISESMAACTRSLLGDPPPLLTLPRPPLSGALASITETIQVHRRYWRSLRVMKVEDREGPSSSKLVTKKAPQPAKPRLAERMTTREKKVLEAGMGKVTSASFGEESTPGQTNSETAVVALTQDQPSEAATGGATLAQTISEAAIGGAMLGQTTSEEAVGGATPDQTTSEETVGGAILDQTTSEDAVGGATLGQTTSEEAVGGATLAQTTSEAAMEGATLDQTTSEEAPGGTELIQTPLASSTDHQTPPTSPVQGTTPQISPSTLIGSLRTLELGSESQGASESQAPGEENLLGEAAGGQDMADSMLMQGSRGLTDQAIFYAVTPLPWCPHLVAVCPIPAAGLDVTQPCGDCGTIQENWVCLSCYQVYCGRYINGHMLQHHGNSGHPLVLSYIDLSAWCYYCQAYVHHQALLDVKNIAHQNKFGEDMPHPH

[5] = Cytotoxicity against human HL7702 cells measured after 72 hrs by MTT assay; conditions: HL7702 (L02) cells
HepG2 [6] = assay: Induction of apoptosis in human HepG2 cells assessed as necrotic cells at 1.25 uM measured after 48 hrs by Annexin V-FITC/propidium iodide staining based flow cytometry (reference value: 0%); assay type: functional
[7] = target: T2, Histone-lysine N-methyltransferase EHMT1 (Homo sapiens, UniProt Q9H9B1); assay: Inhibition of GLP (unknown origin)
T2 sequence (Q9H9B1 whole entry): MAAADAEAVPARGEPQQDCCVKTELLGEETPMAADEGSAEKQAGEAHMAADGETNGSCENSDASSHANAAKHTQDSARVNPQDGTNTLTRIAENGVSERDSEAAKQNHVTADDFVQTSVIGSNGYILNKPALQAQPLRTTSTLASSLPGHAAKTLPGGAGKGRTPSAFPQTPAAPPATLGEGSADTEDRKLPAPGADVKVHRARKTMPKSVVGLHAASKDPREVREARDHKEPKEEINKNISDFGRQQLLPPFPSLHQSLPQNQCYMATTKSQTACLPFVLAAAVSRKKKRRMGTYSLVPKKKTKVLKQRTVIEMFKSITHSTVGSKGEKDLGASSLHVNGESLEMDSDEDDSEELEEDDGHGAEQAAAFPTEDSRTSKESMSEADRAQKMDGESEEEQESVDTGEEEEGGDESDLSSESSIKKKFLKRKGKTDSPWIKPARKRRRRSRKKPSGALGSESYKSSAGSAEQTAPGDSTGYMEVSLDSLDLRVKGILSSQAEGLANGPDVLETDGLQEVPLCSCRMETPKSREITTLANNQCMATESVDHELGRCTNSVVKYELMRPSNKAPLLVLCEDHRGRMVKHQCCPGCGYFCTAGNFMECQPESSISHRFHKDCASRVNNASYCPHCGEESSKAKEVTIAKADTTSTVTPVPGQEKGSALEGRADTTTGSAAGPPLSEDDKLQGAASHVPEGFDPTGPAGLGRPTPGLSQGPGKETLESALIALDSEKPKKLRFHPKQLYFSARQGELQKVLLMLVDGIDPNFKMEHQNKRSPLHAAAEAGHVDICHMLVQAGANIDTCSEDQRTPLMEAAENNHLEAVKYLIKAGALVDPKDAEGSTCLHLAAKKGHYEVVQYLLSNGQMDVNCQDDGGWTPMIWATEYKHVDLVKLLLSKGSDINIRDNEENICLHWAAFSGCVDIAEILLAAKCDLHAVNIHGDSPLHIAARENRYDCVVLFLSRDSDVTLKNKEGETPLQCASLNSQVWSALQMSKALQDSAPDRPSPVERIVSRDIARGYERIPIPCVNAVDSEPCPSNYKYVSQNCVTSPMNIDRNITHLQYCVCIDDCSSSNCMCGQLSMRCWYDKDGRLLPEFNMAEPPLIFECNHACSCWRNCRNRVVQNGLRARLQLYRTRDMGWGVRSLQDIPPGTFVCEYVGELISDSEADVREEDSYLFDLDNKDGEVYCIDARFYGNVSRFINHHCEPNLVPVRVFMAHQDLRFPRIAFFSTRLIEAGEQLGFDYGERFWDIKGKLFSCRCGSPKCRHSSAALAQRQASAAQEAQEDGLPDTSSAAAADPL

HepG2 [8] = assay: Induction of apoptosis in human HepG2 cells assessed as viable cells at 20 uM measured after 48 hrs by Annexin V-FITC/propidium iodide staining based flow cytometry (reference value: 88.58%); assay type: functional; conditions: read-out: Activity
HepG2 [9] = assay: Induction of apoptosis in human HepG2 cells assessed as necrotic cells at 10 uM measured after 48 hrs by Annexin V-FITC/propidium iodide staining based flow cytometry (reference value: 0%); assay type: functional

For `COc1cc2nc(N3CCN(CCCCCC(=O)NO)CC3)nc(NC3CCN(Cc4ccccc4)CC3)c2cc1OC`, the Activity (HepG2 [1]) was 10.22%, the Activity (HepG2 [2]) was “Active” and the remaining at 5 min, 1 µM [3] was 81.1%. For the same compound, the IC50 [4] was 13 nM, the IC50 at 72 h [5] was 39800 nM and the Activity (HepG2 [6]) was 0%. For the same compound, the IC50 [7] was 1.3 nM, the viability at 20 µM (HepG2 [8]) was 33.1% and the Activity (HepG2 [9]) was 0%.
